# Laboratory results: ChEMBL document CHEMBL1201861, “Genomics of Drug Sensitity in Cancer screening data, Wellcome Trust Sanger Institute”
# Test system: KGN;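 note: growth inhibition of KGN cells, read out with a cell viability assay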
# Experiment: cells
# Format: functional, cell-based, Homo sapiens
# Details: Homo sapiens, KGN
# Description: SANGER: Inhibition of human KGN cell growth in a cell viability assay.
row,Structure (SMILES),IC50
1,Cc1ccc(NC(=O)c2ccc(CN3CCN(C)CC3)cc2)cc1Nc1nccc(-c2cccnc2)n1 [IMATINIB],> 2000 nM

# Test system: no-11;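 note: growth inhibition of human NO-11 cells, read out with a cell viability assay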
# Experiment: cells
# Format: functional, cell-based, Homo sapiens
# Details: Homo sapiens
# Description: SANGER: Inhibition of human no-11 cell growth in a cell viability assay.
row,Structure (SMILES),IC50
1,Cc1ccc(NC(=O)c2ccc(CN3CCN(C)CC3)cc2)cc1Nc1nccc(-c2cccnc2)n1 [IMATINIB],> 2000 nM

# Test system: EW-16;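 note: growth inhibition of human EW-16 cells, read out as cell viability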
# Experiment: cells
# Format: functional, cell-based, Homo sapiens
# Details: Homo sapiens, EW-16
# Description: SANGER: Inhibition of human EW-16 cell growth in a cell viability assay.
row,Structure (SMILES),IC50
1,Cc1ccc(NC(=O)c2ccc(CN3CCN(C)CC3)cc2)cc1Nc1nccc(-c2cccnc2)n1 [IMATINIB],> 2000 nM

# Test system: GI-ME-N;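 note: growth inhibition of human GI-ME-N cells, read out with a cell viability assay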
# Experiment: cells
# Format: functional, cell-based, Homo sapiens
# Details: Homo sapiens, GI-ME-N
# Description: SANGER: Inhibition of human GI-ME-N cell growth in a cell viability assay.
row,Structure (SMILES),IC50
1,Cc1ccc(NC(=O)c2ccc(CN3CCN(C)CC3)cc2)cc1Nc1nccc(-c2cccnc2)n1 [IMATINIB],> 2000 nM

# Test system: GT3TKB;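 note: growth inhibition of the cell line, read out with a cell viability assay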
# Experiment: cells
# Format: functional, cell-based, Homo sapiens
# Details: Homo sapiens, GT3TKB
# Description: SANGER: Inhibition of human GT3TKB cell growth in a cell viability assay.
row,Structure (SMILES),IC50
1,Cc1ccc(NC(=O)c2ccc(CN3CCN(C)CC3)cc2)cc1Nc1nccc(-c2cccnc2)n1 [IMATINIB],> 2000 nM

# Test system: KARPAS-45;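 note: inhibition of cell line growth, read out through a viability assay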
# Experiment: cells
# Format: functional, cell-based, Homo sapiens
# Details: Homo sapiens, KARPAS-45
# Description: SANGER: Inhibition of human KARPAS-45 cell growth in a cell viability assay.
row,Structure (SMILES),IC50
1,Cc1ccc(NC(=O)c2ccc(CN3CCN(C)CC3)cc2)cc1Nc1nccc(-c2cccnc2)n1 [IMATINIB],> 2000 nM

# Test system: BE-13;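 note: growth inhibition of human BE-13 cells, measured with a cell viability assay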
# Experiment: cells
# Format: functional, cell-based, Homo sapiens
# Details: Homo sapiens, BE-13
# Description: SANGER: Inhibition of human BE-13 cell growth in a cell viability assay.
row,Structure (SMILES),IC50
1,Cc1ccc(NC(=O)c2ccc(CN3CCN(C)CC3)cc2)cc1Nc1nccc(-c2cccnc2)n1 [IMATINIB],> 2000 nM

# Test system: NCI-H747;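 note: growth inhibition of human NCI-H747 cells, read out by a cell viability assay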
# Experiment: cells
# Format: functional, cell-based, Homo sapiens
# Details: Homo sapiens, NCI-H747
# Description: SANGER: Inhibition of human NCI-H747 cell growth in a cell viability assay.
row,Structure (SMILES),IC50
1,Cc1ccc(NC(=O)c2ccc(CN3CCN(C)CC3)cc2)cc1Nc1nccc(-c2cccnc2)n1 [IMATINIB],> 2000 nM

# Test system: KLE;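 note: growth inhibition of human KLE cells, read out with a cell viability assay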
# Experiment: cells
# Format: functional, cell-based
# Details: Homo sapiens
# Description: SANGER: Inhibition of human KLE cell growth in a cell viability assay.
row,Structure (SMILES),IC50
1,Cc1ccc(NC(=O)c2ccc(CN3CCN(C)CC3)cc2)cc1Nc1nccc(-c2cccnc2)n1 [IMATINIB],> 2000 nM

# Test system: Lu-65;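 note: growth inhibition of Lu-65 cancer cells, read out by a cell viability assay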
# Experiment: cells
# Format: functional, cell-based, Homo sapiens
# Details: Homo sapiens, Lu-65
# Description: SANGER: Inhibition of human LU-65 cell growth in a cell viability assay.
row,Structure (SMILES),IC50
1,Cc1ccc(NC(=O)c2ccc(CN3CCN(C)CC3)cc2)cc1Nc1nccc(-c2cccnc2)n1 [IMATINIB],> 2000 nM

# Test system: BB49-HNC;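 note: cell viability assay read-out, reported as inhibition of BB49-HNC cell growth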
# Experiment: cells
# Format: functional, cell-based, Homo sapiens
# Details: Homo sapiens, BB49-HNC
# Description: SANGER: Inhibition of human BB49-HNC cell growth in a cell viability assay.
row,Structure (SMILES),IC50
1,Cc1ccc(NC(=O)c2ccc(CN3CCN(C)CC3)cc2)cc1Nc1nccc(-c2cccnc2)n1 [IMATINIB],> 2000 nM

# Test system: NCI-H1395;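 note: cell viability assay read-out quantifying reduced proliferation of human NCI-H1395 cells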
# Experiment: cells
# Format: functional, cell-based, Homo sapiens
# Details: Homo sapiens, NCI-H1395
# Description: SANGER: Inhibition of human NCI-H1395 cell growth in a cell viability assay.
row,Structure (SMILES),IC50
1,Cc1ccc(NC(=O)c2ccc(CN3CCN(C)CC3)cc2)cc1Nc1nccc(-c2cccnc2)n1 [IMATINIB],> 2000 nM

# Test system: MMAC-SF;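 note: growth inhibition of human MMAC-SF cells, read out with a cell viability assay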
# Experiment: cells
# Format: functional, cell-based
# Details: Homo sapiens
row,Structure (SMILES),IC50
1,Cc1ccc(NC(=O)c2ccc(CN3CCN(C)CC3)cc2)cc1Nc1nccc(-c2cccnc2)n1 [IMATINIB],> 2000 nM

# Test system: OCUB-M;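 note: growth inhibition of the cancer cell line, read out through a cell viability assay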
# Experiment: cells
# Format: functional, cell-based
# Details: Homo sapiens
row,Structure (SMILES),IC50
1,Cc1ccc(NC(=O)c2ccc(CN3CCN(C)CC3)cc2)cc1Nc1nccc(-c2cccnc2)n1 [IMATINIB],> 2000 nM

# Test system: OVCAR-4;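 note: growth inhibition of human OVCAR-4 cells, measured with a cell viability assay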
# Experiment: cells
# Format: functional, cell-based, Homo sapiens
# Details: Homo sapiens, OVCAR-4
# Description: SANGER: Inhibition of human OVCAR-4 cell growth in a cell viability assay.
row,Structure (SMILES),IC50
1,Cc1ccc(NC(=O)c2ccc(CN3CCN(C)CC3)cc2)cc1Nc1nccc(-c2cccnc2)n1 [IMATINIB],> 2000 nM

# Test system: MC116;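 note: growth inhibition of MC116 cells, read out with a cell viability assay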
# Experiment: cells
# Format: functional, cell-based, Homo sapiens
# Details: Homo sapiens, MC116
# Description: SANGER: Inhibition of human MC116 cell growth in a cell viability assay.
row,Structure (SMILES),IC50
1,Cc1ccc(NC(=O)c2ccc(CN3CCN(C)CC3)cc2)cc1Nc1nccc(-c2cccnc2)n1 [IMATINIB],> 2000 nM

# Test system: MZ2-MEL;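 note: growth inhibition of MZ2-MEL cells read out with a cell viability assay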
# Experiment: cells
# Format: functional, cell-based, Homo sapiens
# Details: Homo sapiens, MZ2-MEL
# Description: SANGER: Inhibition of human MZ2-MEL cell growth in a cell viability assay.
row,Structure (SMILES),IC50
1,Cc1ccc(NC(=O)c2ccc(CN3CCN(C)CC3)cc2)cc1Nc1nccc(-c2cccnc2)n1 [IMATINIB],> 2000 nM

# Test system: NCI-H2126;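 note: growth inhibition of the cancer cell line, determined with a cell viability readout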
# Experiment: cells
# Format: functional, cell-based, Homo sapiens
# Details: Homo sapiens, NCI-H2126
row,Structure (SMILES),IC50
1,Cc1ccc(NC(=O)c2ccc(CN3CCN(C)CC3)cc2)cc1Nc1nccc(-c2cccnc2)n1 [IMATINIB],> 2000 nM

# Test system: TE-10;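 note: growth inhibition of TE-10 cells, measured by a cell viability assay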
# Experiment: cells
# Format: functional, cell-based, Homo sapiens
# Details: Homo sapiens, TE-10
# Description: SANGER: Inhibition of human TE-10 cell growth in a cell viability assay.
row,Structure (SMILES),IC50
1,Cc1ccc(NC(=O)c2ccc(CN3CCN(C)CC3)cc2)cc1Nc1nccc(-c2cccnc2)n1 [IMATINIB],> 2000 nM

# Test system: KS-1;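 note: growth inhibition of KS-1 cells, read out with a cell viability assay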
# Experiment: cells
# Format: functional, cell-based
# Details: Homo sapiens
# Description: SANGER: Inhibition of human KS-1 cell growth in a cell viability assay.
row,Structure (SMILES),IC50
1,Cc1ccc(NC(=O)c2ccc(CN3CCN(C)CC3)cc2)cc1Nc1nccc(-c2cccnc2)n1 [IMATINIB],> 2000 nM

# Test system: NB5;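 note: growth inhibition of NB5 cells, read out as cell viability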
# Experiment: cells
# Format: functional, cell-based, Homo sapiens
# Details: Homo sapiens, NB5
# Description: SANGER: Inhibition of human NB5 cell growth in a cell viability assay.
row,Structure (SMILES),IC50
1,Cc1ccc(NC(=O)c2ccc(CN3CCN(C)CC3)cc2)cc1Nc1nccc(-c2cccnc2)n1 [IMATINIB],> 2000 nM

# Test system: GB-1;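 note: growth of GB-1 cells judged by a viability assay, IC50 marks the concentration inhibiting growth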
# Experiment: cells
# Format: functional, cell-based, Homo sapiens
# Details: Homo sapiens, GB-1
# Description: SANGER: Inhibition of human GB-1 cell growth in a cell viability assay.
row,Structure (SMILES),IC50
1,Cc1ccc(NC(=O)c2ccc(CN3CCN(C)CC3)cc2)cc1Nc1nccc(-c2cccnc2)n1 [IMATINIB],> 2000 nM

# Test system: SNU-C2B;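 note: cell viability readout used to measure compound-driven suppression of SNU-C2B cell proliferation, IC50 marking half-maximal growth inhibition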
# Experiment: cells
# Format: functional, cell-based
# Details: Homo sapiens
# Description: SANGER: Inhibition of human SNU-C2B cell growth in a cell viability assay.
row,Structure (SMILES),IC50
1,Cc1ccc(NC(=O)c2ccc(CN3CCN(C)CC3)cc2)cc1Nc1nccc(-c2cccnc2)n1 [IMATINIB],> 2000 nM

# Test system: NKM-1;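 note: growth inhibition of NKM-1 cells, read out with a cell viability assay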
# Experiment: cells
# Format: functional, cell-based, Homo sapiens
# Details: Homo sapiens, NKM-1
# Description: SANGER: Inhibition of human NKM-1 cell growth in a cell viability assay.
row,Structure (SMILES),IC50
1,Cc1ccc(NC(=O)c2ccc(CN3CCN(C)CC3)cc2)cc1Nc1nccc(-c2cccnc2)n1 [IMATINIB],> 2000 nM

# Test system: SF-126;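 note: growth inhibition of human SF126 cells, read out with a cell viability assay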
# Experiment: cells
# Format: functional, cell-based, Homo sapiens
# Details: Homo sapiens, SF-126
row,Structure (SMILES),IC50
1,Cc1ccc(NC(=O)c2ccc(CN3CCN(C)CC3)cc2)cc1Nc1nccc(-c2cccnc2)n1 [IMATINIB],> 2000 nM
